From US20240246942A1, “KINASE INHIBITORS FOR THE TREATMENT OF NEURODEGENERATIVE DISEASES” (priority 2020, published 2024)

What was measured:
Assay in all cases: biochemical
[1] = biological target: T1, panel of 374 wild-type kinases (Homo sapiens, UniProt O43781); conditions: read-out: % Enzyme Activity (relative to DMSO controls), DYRK3
T1 construct: purchased Reaction Biology Corporation
T1 sequence (O43781 1-588): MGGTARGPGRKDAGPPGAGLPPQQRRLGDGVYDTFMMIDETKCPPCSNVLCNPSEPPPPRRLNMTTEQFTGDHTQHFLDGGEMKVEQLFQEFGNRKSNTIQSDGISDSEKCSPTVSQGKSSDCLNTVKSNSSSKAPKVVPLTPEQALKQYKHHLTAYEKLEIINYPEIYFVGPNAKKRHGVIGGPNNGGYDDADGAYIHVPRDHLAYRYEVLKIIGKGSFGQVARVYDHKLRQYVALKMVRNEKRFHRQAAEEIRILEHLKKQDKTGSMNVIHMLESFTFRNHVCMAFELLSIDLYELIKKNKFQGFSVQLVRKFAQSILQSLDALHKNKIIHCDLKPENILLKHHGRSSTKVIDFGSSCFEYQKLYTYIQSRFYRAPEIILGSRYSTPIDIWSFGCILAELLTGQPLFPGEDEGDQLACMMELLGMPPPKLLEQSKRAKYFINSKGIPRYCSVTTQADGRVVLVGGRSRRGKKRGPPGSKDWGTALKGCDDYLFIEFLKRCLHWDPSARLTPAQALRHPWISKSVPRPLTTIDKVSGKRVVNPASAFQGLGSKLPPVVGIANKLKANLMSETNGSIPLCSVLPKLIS

[2] = biological target: T2, panel of 374 wild-type kinases (Homo sapiens, UniProt P27361); conditions: read-out: % Enzyme Activity (relative to DMSO controls), ERK1
T2 construct: purchased Reaction Biology Corporation
T2 sequence (P27361 whole entry): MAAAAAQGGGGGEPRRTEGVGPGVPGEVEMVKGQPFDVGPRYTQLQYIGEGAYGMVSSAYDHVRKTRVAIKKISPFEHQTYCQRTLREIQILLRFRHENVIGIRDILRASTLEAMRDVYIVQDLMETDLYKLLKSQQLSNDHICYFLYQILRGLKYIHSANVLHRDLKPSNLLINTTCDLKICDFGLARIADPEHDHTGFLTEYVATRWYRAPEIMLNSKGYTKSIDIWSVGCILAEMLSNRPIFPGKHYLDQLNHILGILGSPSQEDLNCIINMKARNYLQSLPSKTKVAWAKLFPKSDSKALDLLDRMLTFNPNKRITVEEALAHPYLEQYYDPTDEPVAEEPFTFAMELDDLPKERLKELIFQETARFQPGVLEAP

[3] = biological target: T3, panel of 374 wild-type kinases (Homo sapiens, UniProt P36896); conditions: read-out: % Enzyme Activity (relative to DMSO controls), ALK4/ACVR1B
T3 construct: purchased Reaction Biology Corporation
T3 sequence (P36896 24-505): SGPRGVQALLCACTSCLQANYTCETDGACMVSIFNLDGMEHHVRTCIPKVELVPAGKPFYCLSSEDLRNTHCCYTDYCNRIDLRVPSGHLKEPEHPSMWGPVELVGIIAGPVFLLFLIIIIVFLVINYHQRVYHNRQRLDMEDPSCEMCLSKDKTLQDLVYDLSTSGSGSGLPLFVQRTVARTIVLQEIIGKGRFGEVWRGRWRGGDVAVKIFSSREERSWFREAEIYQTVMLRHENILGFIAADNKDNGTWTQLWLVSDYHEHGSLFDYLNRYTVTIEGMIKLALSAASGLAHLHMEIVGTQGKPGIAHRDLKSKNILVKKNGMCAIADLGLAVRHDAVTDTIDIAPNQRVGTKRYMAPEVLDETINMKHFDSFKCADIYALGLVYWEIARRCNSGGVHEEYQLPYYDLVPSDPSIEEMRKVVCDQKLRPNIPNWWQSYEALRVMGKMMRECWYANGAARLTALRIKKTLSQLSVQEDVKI

[4] = biological target: T4, panel of 374 wild-type kinases (Homo sapiens, UniProt Q7KZI7); conditions: read-out: % Enzyme Activity (relative to DMSO controls), MARK2/PAR-1Ba
T4 construct: purchased Reaction Biology Corporation
T4 sequence (Q7KZI7 whole entry): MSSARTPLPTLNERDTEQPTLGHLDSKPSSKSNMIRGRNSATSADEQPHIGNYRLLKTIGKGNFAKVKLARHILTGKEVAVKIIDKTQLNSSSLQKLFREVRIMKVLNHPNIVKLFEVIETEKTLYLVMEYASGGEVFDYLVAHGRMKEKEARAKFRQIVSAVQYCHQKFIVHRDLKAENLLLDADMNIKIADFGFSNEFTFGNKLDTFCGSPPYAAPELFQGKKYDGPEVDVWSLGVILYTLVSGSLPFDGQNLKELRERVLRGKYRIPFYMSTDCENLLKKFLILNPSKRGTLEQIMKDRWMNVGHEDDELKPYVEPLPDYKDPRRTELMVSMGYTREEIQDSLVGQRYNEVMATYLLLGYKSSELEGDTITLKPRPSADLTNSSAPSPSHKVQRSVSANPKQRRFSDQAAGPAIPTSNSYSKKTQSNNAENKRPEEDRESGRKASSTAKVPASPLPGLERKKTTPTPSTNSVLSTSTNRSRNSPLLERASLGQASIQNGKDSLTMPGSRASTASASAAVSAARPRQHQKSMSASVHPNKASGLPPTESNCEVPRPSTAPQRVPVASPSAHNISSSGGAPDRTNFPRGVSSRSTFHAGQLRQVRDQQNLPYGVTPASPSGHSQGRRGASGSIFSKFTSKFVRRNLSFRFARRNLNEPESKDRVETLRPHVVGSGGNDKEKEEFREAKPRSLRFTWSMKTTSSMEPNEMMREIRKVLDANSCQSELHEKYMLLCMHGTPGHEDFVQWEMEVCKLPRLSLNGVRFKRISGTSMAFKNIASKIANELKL

[5] = biological target: T5, panel of 374 wild-type kinases (Homo sapiens, UniProt Q9BXA7); conditions: read-out: % Enzyme Activity (relative to DMSO controls), kinase STK22D/TSSK1
T5 construct: purchased Reaction Biology Corporation
T5 sequence (Q9BXA7 1-367): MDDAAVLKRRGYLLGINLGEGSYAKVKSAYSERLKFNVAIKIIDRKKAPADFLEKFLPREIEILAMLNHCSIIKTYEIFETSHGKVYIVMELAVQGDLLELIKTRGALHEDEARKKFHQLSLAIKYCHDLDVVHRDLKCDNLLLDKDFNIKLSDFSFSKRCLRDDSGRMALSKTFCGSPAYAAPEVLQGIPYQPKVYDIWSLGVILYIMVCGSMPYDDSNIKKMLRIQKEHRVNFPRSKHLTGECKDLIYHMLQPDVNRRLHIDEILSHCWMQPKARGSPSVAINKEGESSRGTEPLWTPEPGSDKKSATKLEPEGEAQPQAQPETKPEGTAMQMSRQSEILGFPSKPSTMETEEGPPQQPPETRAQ

[6] = biological target: T6, panel of 374 wild-type kinases (Homo sapiens, UniProt Q9UPZ9); conditions: read-out: % Enzyme Activity (relative to DMSO controls), LCK2/ICK
T6 construct: purchased Reaction Biology Corporation
T6 sequence (Q9UPZ9 1-632): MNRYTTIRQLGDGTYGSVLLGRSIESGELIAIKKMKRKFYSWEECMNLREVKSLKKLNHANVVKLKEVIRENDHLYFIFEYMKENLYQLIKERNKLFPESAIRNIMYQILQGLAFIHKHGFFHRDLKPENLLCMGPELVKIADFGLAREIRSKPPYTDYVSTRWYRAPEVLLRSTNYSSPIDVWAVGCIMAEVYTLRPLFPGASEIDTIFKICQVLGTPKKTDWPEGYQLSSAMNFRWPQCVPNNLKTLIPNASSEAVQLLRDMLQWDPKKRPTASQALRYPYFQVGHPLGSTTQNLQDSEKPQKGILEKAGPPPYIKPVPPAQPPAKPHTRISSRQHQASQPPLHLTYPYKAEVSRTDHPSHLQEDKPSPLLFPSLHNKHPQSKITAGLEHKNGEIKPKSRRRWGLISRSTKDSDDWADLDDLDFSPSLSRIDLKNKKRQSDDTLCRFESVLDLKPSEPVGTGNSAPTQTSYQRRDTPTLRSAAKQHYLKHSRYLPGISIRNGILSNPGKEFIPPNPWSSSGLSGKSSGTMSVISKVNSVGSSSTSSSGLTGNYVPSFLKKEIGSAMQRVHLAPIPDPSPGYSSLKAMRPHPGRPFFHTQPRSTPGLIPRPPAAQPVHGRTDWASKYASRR

[7] = biological target: T7, panel of 374 wild-type kinases (Homo sapiens, UniProt Q9UQM7); conditions: read-out: % Enzyme Activity (relative to DMSO controls), CAMK2a
T7 construct: purchased Reaction Biology Corporation
T7 sequence (Q9UQM7 whole entry): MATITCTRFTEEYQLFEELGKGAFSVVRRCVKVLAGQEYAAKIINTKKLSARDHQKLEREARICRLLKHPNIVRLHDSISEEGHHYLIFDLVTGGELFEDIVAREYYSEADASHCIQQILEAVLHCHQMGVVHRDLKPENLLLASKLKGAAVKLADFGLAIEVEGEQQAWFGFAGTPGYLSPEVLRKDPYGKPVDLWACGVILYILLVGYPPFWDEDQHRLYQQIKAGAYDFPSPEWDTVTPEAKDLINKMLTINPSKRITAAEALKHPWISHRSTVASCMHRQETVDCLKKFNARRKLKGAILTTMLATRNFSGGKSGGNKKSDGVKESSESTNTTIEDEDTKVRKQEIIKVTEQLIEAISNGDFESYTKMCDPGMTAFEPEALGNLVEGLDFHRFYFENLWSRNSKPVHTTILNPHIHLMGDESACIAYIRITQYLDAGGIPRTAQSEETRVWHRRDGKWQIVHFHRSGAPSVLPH

`O=C(Nc1cnn(-c2csc(C(=O)NC3COC3)c2)c1)Nc1ccccc1Cl` [Compound 17, 4-(4-(3-(2-chlorophenyl)ureido)-1H-pyrazol-1-yl)-N-(oxetan-3-yl)thiophene-2-carboxamide] gave a remaining activity at 5 µM [1] of 93.3%, a remaining activity at 5 µM [2] of 92.8% and a remaining activity at 5 µM [3] of 124%. The remaining activity at 5 µM [4] was 104%, the remaining activity at 5 µM [5] was 102% and the remaining activity at 5 µM [6] was 112%. For the same compound, the remaining activity at 5 µM [7] was 100%.

Compound `O=C(Nc1cnn(-c2csc(C(=O)NC3COC3)c2)c1)Nc1c(F)cccc1Cl` [Compound 25, 4-(4-(3-(2-chloro-6-fluorophenyl)ureido)-1H-pyrazol-1-yl)-N-(oxetan-3-yl)thiophene-2-carboxamide] has a remaining activity at 5 µM [1] of 99.2%, a remaining activity at 5 µM [2] of 92.4% and a remaining activity at 5 µM [3] of 82%. For the same compound, the remaining activity at 5 µM [4] was 90.7%, the remaining activity at 5 µM [5] was 107% and the remaining activity at 5 µM [6] was 101%. It also gave a remaining activity at 5 µM [7] of 99.4%.

Compound `Cc1sc(C(=O)NC2COC2)cc1-n1cc(NC(=O)Nc2c(F)cccc2Cl)cn1` [Compound 27, 4-(4-(3-(2-chloro-6-fluorophenyl)ureido)-1H-pyrazol-1-yl)-5-methyl-N-(oxetan-3-yl)thiophene-2-carboxamide] has a remaining activity at 10 µM ([1]; 10 uM) of 101%, a remaining activity at 10 µM ([2]; 10 uM) of 107% and a remaining activity at 10 µM ([3]; 10 uM) of 78.5%. The remaining activity at 10 µM ([4]; 10 uM) was 99.8%, the remaining activity at 10 µM ([5]; 10 uM) was 103% and the remaining activity at 10 µM ([6]; 10 uM) was 100%. The remaining activity at 10 µM ([7]; 10 uM) was 99.7%.
